Data as given in US20250263405A1, “HISTONE DEACETYLASE 6 INHIBITOR COMPOUNDS AND USES THEREOF” (VALO HEALTH, INC., priority 2021, published 2025).
pIC50: −log10 of the molar value.

Each molecule was assayed against HDAC6 (Homo sapiens (Human), UniProt Q9UBN7) (assay: HDAC6 TR-FRET displacement assay). Conditions: displacement of fluorescein labeled tracer from HDAC6; 2 nM HDAC6, 1 nM tracer, 0.5 nM Tb-anti-GST antibody; 30 min pre-incubation, 6 hours at 25° C.
Assay type: binding
Source text: HDAC6 and Tb-anti-GST antibody were purchased from Signal Chem (cat #PC124) and Cisbio (cat #61GSTTAH), respectively. HEPES, pH 7.5 was purchased from Teknova (Cat #H1575). All other buffer components, NaCl (cat #S5150), KCl (cat #60121), Triton X-100 (cat #T9284), GSH (cat #G4251), BGG (cat #G5009), and BSA (cat #A2153) were purchased from SIGMA.
Displacement of fluorescein labeled tracer 2-(6-hydroxy-3-oxo-3H-xanthen-9-yl)-5-({[5-(4-{[7-(hydroxycarbamoyl)-2H,3H,4H,5H-thieno[2,3-f][1,4]oxazepine-4-carbonyl]amino}phenoxy)pentyl]carbamothioyl}amino)benzoic acid from HDAC6 was measured in vitro using a TR-FRET assay. The assays were performed in 1536-well plates in a total volume of 6 μL in assay buffer consisting of 50 mM HEPES pH 7.5, 50 mM NaCl, 50 mM KCl, 0.01% Triton X-100, 0.5 mM GSH, 0.03% BGG, 0.01% BSA.
For concentration response curves (IC50 determination), Compounds were serially diluted 3-fold from 2 mM highest concentration to generate a 10-point concentration gradient. To perform the assay, 30 nL of compound gradient solutions were transferred to the assay plate using the ECHO acoustic dispenser to achieve a final concentration range of 10 μM to 0.000508 uM in 6 μL reaction. 3 μL of HDAC6 in assay buffer were added to the assay plates and pre-incubate at room temp. for 30 mins. After pre-incubation, 3 μL of the tracer and TB-anti-GST antibody mix were added to the assay plates. The final concentrations of HDAC6, tracer, and TB-anti-GST antibody for each assay are 2 nM, 1 nM, and 0.5 nM, respectively. Binding reactions were equilibrated at 25° C. for an additional 6 hours, then read in endpoint mode on the BMG PheraStar (BMG labtech) equipped with a 337-520-490 optical module. The ratio of the 520/490 nm emission was calculated to determine the relative amounts of HDAC6 and tracer complex residue in each well.
The percent inhibition of HDAC6 (IC50) was calculated according to the following equation.
As set forth in Table 1, “A” indicates an HDAC6 IC50 value of less than 200 nM; “B” indicates an HDAC6 IC50 value of greater than or equal to 200 nM and less than 500 nM; and “C” indicates an HDAC6 IC50 value of greater than or equal to 500 nM and less than 5 μM.

Chain of HDAC6 (Q9UBN7 whole entry): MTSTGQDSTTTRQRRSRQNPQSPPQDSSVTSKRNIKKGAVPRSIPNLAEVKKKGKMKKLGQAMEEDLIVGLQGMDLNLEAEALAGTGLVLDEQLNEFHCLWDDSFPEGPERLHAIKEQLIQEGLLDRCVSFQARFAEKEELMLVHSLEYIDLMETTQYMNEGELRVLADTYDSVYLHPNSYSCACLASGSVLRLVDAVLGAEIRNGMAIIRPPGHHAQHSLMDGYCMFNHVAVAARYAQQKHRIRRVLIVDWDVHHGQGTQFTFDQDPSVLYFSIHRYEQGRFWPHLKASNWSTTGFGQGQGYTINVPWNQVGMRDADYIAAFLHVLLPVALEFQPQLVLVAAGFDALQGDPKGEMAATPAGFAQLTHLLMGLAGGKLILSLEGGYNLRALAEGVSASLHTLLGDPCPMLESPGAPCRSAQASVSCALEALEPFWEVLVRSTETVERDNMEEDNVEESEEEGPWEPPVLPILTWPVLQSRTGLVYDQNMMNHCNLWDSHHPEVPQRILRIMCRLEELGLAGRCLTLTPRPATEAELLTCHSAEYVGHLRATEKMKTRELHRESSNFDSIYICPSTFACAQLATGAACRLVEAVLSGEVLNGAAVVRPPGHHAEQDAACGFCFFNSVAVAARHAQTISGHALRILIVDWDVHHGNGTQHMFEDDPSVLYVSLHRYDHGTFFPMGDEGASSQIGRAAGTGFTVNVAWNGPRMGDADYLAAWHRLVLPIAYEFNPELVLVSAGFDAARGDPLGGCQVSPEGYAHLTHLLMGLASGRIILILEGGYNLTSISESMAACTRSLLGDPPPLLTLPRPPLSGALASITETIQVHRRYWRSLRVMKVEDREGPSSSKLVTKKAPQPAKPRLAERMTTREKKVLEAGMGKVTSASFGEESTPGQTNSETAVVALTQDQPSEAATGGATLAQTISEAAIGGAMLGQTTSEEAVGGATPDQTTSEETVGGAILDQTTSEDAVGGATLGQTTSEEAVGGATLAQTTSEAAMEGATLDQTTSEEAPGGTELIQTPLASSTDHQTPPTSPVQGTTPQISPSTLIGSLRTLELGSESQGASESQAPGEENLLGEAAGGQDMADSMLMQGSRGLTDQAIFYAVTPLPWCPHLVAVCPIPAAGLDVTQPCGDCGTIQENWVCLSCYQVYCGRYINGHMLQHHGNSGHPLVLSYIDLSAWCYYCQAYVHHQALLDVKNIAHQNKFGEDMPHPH

Row | Compound | pIC50
1 | C[C@H]1COc2cc(-c3noc(C(F)(F)F)n3)ccc2CN1C(=O)C(C)(C)C [Compound 17, 2,2-dimethyl-1-[(3S)-3-methyl-8-[5-(trifluoromethyl)-1,2,4-oxadiazol-3-yl]-3,5-dihydro-2H-1,4-benzoxazepin-4-yl]propan-1-one] | > 6.70
2 | CC(C)C(=O)N1Cc2c(F)cc(-c3noc(C(F)(F)F)n3)cc2OC[C@@H]1C [Compound 38, 1-[(3S)-6-fluoro-3-methyl-8-[5-(trifluoromethyl)-1,2,4-oxadiazol-3-yl]-3,5-dihydro-2H-1,4-benzoxazepin-4-yl]-2-methylpropan-1-one] | > 6.70
3 | COCC1(C(=O)N2Cc3c(F)cc(-c4noc(C(F)(F)F)n4)cc3OC[C@@H]2C)CC1 [Compound 31, (3S)-6-fluoro-4-{[1-(methoxymethyl)cyclopropyl]carbonyl}-3-methyl-8-[5-(trifluoromethyl)-1,2,4-oxadiazol-3-yl]-3,5-dihydro-2H-1,4-benzoxazepine] | 6.30 to 6.70
4 | CC1(C(=O)N2Cc3ccc(-c4noc(C(F)(F)F)n4)cc3OC[C@@H]2c2ccccc2)CCCOC1 (single isomer, unassigned) [Compound 14] | 5.30 to 6.30
5 | CC(C)(C)C(=O)N1Cc2c(F)cc(-c3noc(C(F)(F)F)n3)cc2OC[C@@H]1c1ccccc1 [Compound 15, (S)-1-(6-fluoro-3-phenyl-8-(5-(trifluoromethyl)-1,2,4-oxadiazol-3-yl)-2,3-dihydrobenzo[f][1,4]oxazepin-4(5H)-yl)-2,2-dimethylpropan-1-one] | 6.30 to 6.70
6 | C[C@H]1COc2cc(-c3noc(C(F)(F)F)n3)cc(F)c2CN1C(=O)c1ccncc1 [Compound 49, (3S)-6-fluoro-3-methyl-4-[(pyridin-4-yl)carbonyl]-8-[5-(trifluoromethyl)-1,2,4-oxadiazol-3-yl]-3,5-dihydro-2H-1,4-benzoxazepine] | 6.30 to 6.70
7 | COCC1(C(=O)N2Cc3c(F)cc(-c4noc(C(F)(F)F)n4)cc3OC[C@@H]2C)COC1 [Compound 30, (3S)-6-fluoro-4-{[3-(methoxymethyl)oxetan-3-yl]carbonyl}-3-methyl-8-[5-(trifluoromethyl)-1,2,4-oxadiazol-3-yl]-3,5-dihydro-2H-1,4-benzoxazepine] | > 6.70
8 | FC(F)(F)c1nc(-c2ccc3c(c2)OCCN(c2nc4ccccc4[nH]2)C3)no1 [Compound 51, 4-(1H-benzo[d]imidazol-2-yl)-8-(5-(trifluoromethyl)-1,2,4-oxadiazol-3-yl)-2,3,4,5-tetrahydrobenzo[f][1,4]oxazepine] | > 6.70
9 | CC(=O)N1Cc2c(F)cc(-c3noc(C(F)(F)F)n3)cc2OC[C@@H]1C [Compound 25, 1-[(3S)-6-fluoro-3-methyl-8-[5-(trifluoromethyl)-1,2,4-oxadiazol-3-yl]-3,5-dihydro-2H-1,4-benzoxazepin-4-yl]ethanone] | 6.30 to 6.70
10 | C[C@H]1COc2cc(-c3noc(C(F)(F)F)n3)cc(F)c2CN1C(=O)C(C)(C)C [Compound 19, 1-[(3S)-6-fluoro-3-methyl-8-[5-(trifluoromethyl)-1,2,4-oxadiazol-3-yl]-3,5-dihydro-2H-1,4-benzoxazepin-4-yl]-2,2-dimethylpropan-1-one] | > 6.70
11 | C[C@H]1COc2cc(-c3noc(C(F)(F)F)n3)ccc2CN1C [Compound 35, (S)-3,4-dimethyl-8-(5-(trifluoromethyl)-1,2,4-oxadiazol-3-yl)-2,3,4,5-tetrahydrobenzo[f][1,4]oxazepine] | 6.30 to 6.70
12 | CC1(C(=O)N2Cc3ccc(-c4noc(C(F)(F)F)n4)cc3OC[C@@H]2c2ccccc2)CCOCC1 [Compound 4, (S)-(4-methyltetrahydro-2H-pyran-4-yl)(3-phenyl-8-(5-(trifluoromethyl)-1,2,4-oxadiazol-3-yl)-2,3-dihydrobenzo[f][1,4]oxazepin-4(5H)-yl)methanone] | > 6.70
13 | C[C@H]1COc2cc(-c3noc(C(F)(F)F)n3)cc(F)c2CN1C(=O)C1(C)CCOCC1 [Compound 18, (3S)-6-fluoro-3-methyl-4-[(4-methyloxan-4-yl)carbonyl]-8-[5-(trifluoromethyl)-1,2,4-oxadiazol-3-yl]-3,5-dihydro-2H-1,4-benzoxazepine] | > 6.70
14 | CC(C)(C)C(=O)N1Cc2ccc(-c3nnc(C(F)F)o3)cc2OC[C@@H]1c1ccccc1 [Compound 22, (S)-1-(8-(5-(difluoromethyl)-1,3,4-oxadiazol-2-yl)-3-phenyl-2,3-dihydrobenzo[f][1,4]oxazepin-4(5H)-yl)-2,2-dimethylpropan-1-one] | > 6.70
15 | COCC(=O)N1Cc2c(F)cc(-c3noc(C(F)(F)F)n3)cc2OC[C@@H]1C [Compound 41, 1-[(3S)-6-fluoro-3-methyl-8-[5-(trifluoromethyl)-1,2,4-oxadiazol-3-yl]-3,5-dihydro-2H-1,4-benzoxazepin-4-yl]-2-methoxyethanone] | > 6.70
16 | COC[C@H]1COc2cc(-c3noc(C(F)(F)F)n3)ccc2CN1C(=O)C(C)(C)C [Compound 27, 1-[(3S)-3-(methoxymethyl)-8-[5-(trifluoromethyl)-1,2,4-oxadiazol-3-yl]-3,5-dihydro-2H-1,4-benzoxazepin-4-yl]-2,2-dimethylpropan-1-one] | > 6.70
17 | O=C(N1Cc2ccc(-c3noc(C(F)(F)F)n3)cc2OC[C@@H]1c1ccccc1)C(F)(F)F [Compound 6, (S)-2,2,2-trifluoro-1-(3-phenyl-8-(5-(trifluoromethyl)-1,2,4-oxadiazol-3-yl)-2,3-dihydrobenzo[f][1,4]oxazepin-4(5H)-yl)ethan-1-one] | 5.30 to 6.30
18 | CC1(C(=O)N2Cc3ccc(-c4nnc(C(F)F)o4)cc3OC[C@@H]2c2ccccc2)CCOCC1 [Compound 3, (S)-(8-(5-(difluoromethyl)-1,3,4-oxadiazol-2-yl)-3-phenyl-2,3-dihydrobenzo[f][1,4]oxazepin-4(5H)-yl)(4-methyltetrahydro-2H-pyran-4-yl)methanone] | > 6.70
19 | O=C(C1CCOCC1)N1CCOc2cc(-c3noc(C(F)(F)F)n3)ccc2C1 [Compound 54, 4-[(oxan-4-yl)carbonyl]-8-[5-(trifluoromethyl)-1,2,4-oxadiazol-3-yl]-3,5-dihydro-2H-1,4-benzoxazepine] | 6.30 to 6.70
20 | CC1(C(=O)N2Cc3ccc(-c4noc(C(F)(F)F)n4)cc3OC[C@@H]2c2ccccc2)CCCOC1 (single isomer, unassigned) [Compound 13] | > 6.70
21 | C[C@H]1COc2cc(-c3nnc(C(F)F)o3)ccc2CN1C(=O)C(C)(C)C [Compound 20, (S)-1-(8-(5-(difluoromethyl)-1,3,4-oxadiazol-2-yl)-3-methyl-2,3-dihydrobenzo[f][1,4]oxazepin-4(5H)-yl)-2,2-dimethylpropan-1-one] | > 6.70
22 | CC(C)(C)OC(=O)N1Cc2ccc(-c3noc(C(F)(F)F)n3)cc2OC[C@@H]1c1ccccc1 [Compound 8, tert-butyl (S)-3-phenyl-8-(5-(trifluoromethyl)-1,2,4-oxadiazol-3-yl)-2,3-dihydrobenzo[f][1,4]oxazepine-4(5H)-carboxylate] | 5.30 to 6.30
23 | CC1Oc2cc(-c3noc(C(F)(F)F)n3)ccc2CNC1=O (stereo not drawn) [Compound 50, 2-methyl-8-[5-(trifluoromethyl)-1,2,4-oxadiazol-3-yl]-4,5-dihydro-2H-1,4-benzoxazepin-3-one] | > 6.70
24 | CC1(C(=O)N2Cc3ccc(-c4noc(C(F)(F)F)n4)cc3OC[C@@H]2C2CC2)CCOCC1 [Compound 32, (3S)-3-cyclopropyl-4-[(4-methyloxan-4-yl)carbonyl]-8-[5-(trifluoromethyl)-1,2,4-oxadiazol-3-yl]-3,5-dihydro-2H-1,4-benzoxazepine] | > 6.70
